Reference: patent US6680292B1 (The Salk Institute for Biological Studies, priority 1998, dated 2004)
Entries after “also recorded” stand apart in the source; their conditions may differ.

B1: NGF: nerve growth factor; mouse 2.5S NGF at 500 pg/ml (protein, UniProt P01139 122-241, looked up)
Beta-nerve growth factor: SSTHPVFHMGEFSVCDSVSVWVGDKTTATDIKGKEVTVLAEVNINNSVFRQYFFETKCRASNPVESGCRGIDSKHWNSYCTTTHTFVKALTTDEKQAAWRFIRIDTACVCVLSRKATRRG
modifications: Beta-nerve growth factor
notes: nerve growth factor; mouse 2.5S NGF at 500 pg/ml

What was measured:
PC12 cells [1] = assay: Growth cone turning in PC12 cells; assay type: cell-based, rat; settings: for growth cone turning: PC12 cells exposed to a focal site of compound, FIGS. 8A-8E
Experimental: The ability of compounds to stimulate neurite elongation as determined by growth cone turning was evaluated in vitro. PC 12 cells were cultured as described above (see Example 1). Cells growing in culture were exposed to a focal site of Ribavirin and control compounds and the number of growth cones with a turning angle was measured and the turned angle of each growth cone was measured.

astrocytes = assay: Effect on non-neuronal cells: astrocytes; assay type: cell-based; settings: same experimental condition as PC12 and HCN cells
HCN cells [2] = system: HCN cells
PC12 cells [3] = assay: Neurite outgrowth / elongation in PC12 cells; assay type: cell-based, rat
Experimental: Neurite outgrowth was determined by measuring neurites from the cell body to the longest point and by counting the number of neurites per cell according to the method of Gysbers et al. (Gysbers et al., NeuroReport 3:997-1000 (1992) and Gysbers et al., Int. J. Dev. Neurosci. 14:19-34 (1996)). Cells are stained with antibodies for Rip, Glial Fibrillary Acidic Protein (GFAP), Microtubule Associated Protein 2ab (MAP2ab), and Calbindin (a Ca-buffering protein).
Briefly, cells were plated on poly-DL-ornithine-coated wells in 24-well plates at a concentration of 2.5×10^4 cells per well in RPMI-1640 medium containing 1.5% FCS, and 1.5% HS. Test compounds and NGF were added immediately after plating. […] The number of cells bearing neurites greater than one cell body diameter after each treatment with test compound was divided by the total number of cells counted.
The ratio of the number of cells bearing neurites in each treatment were divided by the total number of cells counted per treatment to determine the proportion of neurite bearing cells for each sample. The mean values (±S.E.M.) were then calculated for each treatment. […] The effect of the test compounds plus NGF is expressed as a percentage of the values obtained using 500 pg/ml NGF (which is given an arbitrary * value of 100% since neurite outgrowth proportions varied between experiments, usually from 20 to 35% for NGF-alone treatments). […]

PC12 cells [4] = assay: Survival and proliferation of PC12 cells (cell counts); assay type: cell-based, rat
Experimental: PC12 cells were maintained in RPMI-1640 medium supplemented with 5% fetal calf serum (FCS), 5% heat-inactivated horse serum (HS), 100 units/ml penicillin G sodium, 100 μg/ml streptomycin sulfate and 0.245 μg/ml amphotericin B. NGF-treated cells were grown in the presence of 500 pg/ml mouse 2.5S NGF. The 1-(β-D-ribofuranosyl)-1H-1,2,4-triazole-3-carboxamide was supplied by ICN Pharmaceuticals. HCN cells were maintained in serum-free N2 basal media with 500 pg/ml of FGF-2. Cells were plated on plastic tissue culture plates coated with polyornithine.
PC12 cells were grown as described above and plated at a density of 10,000 cells/well in RPMI with 500 pg/ml NGF. […] Cells were counted and neurite elongation evaluated on days 0, 1 and 3. The media was not changed for the duration of the experiment.

HCN cells [5] = assay: FGF-2 induced neurite elongation in HCN cells; assay type: cell-based; settings: HCN cells with FGF-2; 0.1, 0.5, 1, 100, 400 nM Ribavirin
Fibroblasts = assay: Effect on non-neuronal cells: fibroblasts; assay type: cell-based; settings: same experimental condition as PC12 and HCN cells

Row | Molecule | growth cone turning (PC12 cells [1]) | effect on astrocytes (astrocytes) | concentrations at which effects were more pronounced (HCN cells [2]; HCN cells with FGF-2) | effect on FGF-2 actions (proliferation, survival) (HCN cells [2]; HCN cells with FGF-2, up to 7 days, FIGS. 4 and 5) | effect on cell survival or proliferation (HCN cells [2]; HCN cells, Ribavirin alone (no FGF-2), 12,500 or 25,000 cells/well, FIG. 3) | neurite elongation and networking (PC12 cells [3]; PC12 cells with NGF, 100 pM, 500 pM, 1 nM, 100 nM and 400 nM) | effect on cell survival or proliferation (PC12 cells [4]; PC12 cells, absence of NGF, various concentrations, FIG. 1) | effects of NGF on the survival and proliferation of PC12 cells (PC12 cells [4]; with 500 pg/ml NGF, assessed at day 1 and day 3, FIG. 2) | effective concentrations for growth cone turning (PC12 cells [1]; PC12 cells) | elongation and networking of the neurites (HCN cells [5]) | effect on fibroblasts (Fibroblasts) | neurite outgrowth proportions (proportion of neurite bearing cells) (PC12 cells [3]; NGF-alone treatments, 500 pg/ml NGF, varied between experiments) [%]
1 | Nc1nc2c(nc(Br)n2[C@@H]2O[C@@H]3COP(=O)(O)O[C@H]3[C@H]2O)c(=O)[nH]1 [8-bromo-cGMP] | turning away from the site (i.e., repulsion | – | – | – | – | – | – | – | – | – | – | –
2 | NC(=O)c1ncn([C@@H]2O[C@H](CO)[C@@H](O)[C@H]2O)n1 [Ribavirin, 1-(β-D-ribofuranosyl)-1H-1,2,4-triazole-3-carboxamide] | stimulated growth cone turning; also recorded: increased turning towards the Ribavirin site (attraction) | without effect | less than 1 nM | augmented/enhanced FGF-2 actions | no effect | enhanced at all concentrations tested | No statistically significant effect | augmented/enhanced | nanomolar range | increased elongation and networking | without effect | –
3 | B1 | – | – | – | – | – | – | – | – | – | – | – | 20 to 35
